Data reported in patent US7087620B2, “Liquid pharmaceutical formulations containing 3,7-diazabicyclo[3,3,1]nonane compounds and methods of treatment relating to anti-arrhythmic events” (Solvay Pharmaceuticals GmbH, priority 2002, dated 2006).
Structures can show the parent of a compound that is named as a salt.

Test system: healthy male subjects
Experiment: Two step infusion study in healthy male subjects: safety and tolerability
Format: in vivo, human
Description: A double-blind, placebo-controlled, randomized, single iv dose, two periods cross-over study to assess the safety, tolerability, pharmacodynamics and pharmacokinetics during and following a two step infusion of Tedisamil in healthy male subjects was performed with the following drug and dosages: Tedisamil dihydrochloride/0.4 mg/kg body weight infused over 30 minutes.
Screening assessments included physical examination, ECG, HIV/Hepatitis screening, blood pressure and heart rate measurements, clinical laboratory determinations, urine drug screen, alcohol breath test, and medical history. Follow-up assessments included physical examination, ECG, blood pressure and heart rate measurements, clinical laboratory determinations, and questions for adverse events and concomitant medication. During concomitant administration of Tedisamil, blood pressure, heart rate, and ECGs were recorded. Adverse events and concomitant medication were monitored throughout the study.
Subjects who received study medication, were considered valid for safety evaluation.
Treatment emergent adverse events, defined as any adverse event present at baseline that worsened or any event that began after treatment with study medication, were summarized by COSTART term for each treatment group. Each adverse event was evaluated for frequency of occurrence, duration, intensity, action taken, outcome, and relationship to administration of the study medication. Adverse events were listed for each subject.
Listings of abnormal or out of range values for each subject were presented for vital signs, laboratory assays, and physical examinations. Adverse events, blood pressure, heart rate and clinical laboratory data were analyzed descriptively and reviewed to evaluate the safety of all randomized subjects. Any clinical abnormalities were described.

C1CCC2(C1)C1CN(CC3CC3)CC2CN(CC2CC2)C1 [tedisamil dihydrochloride, N,N′-dicyclopropylmethyl-9,9-tetramethylen-3,7-diazabicyclo[3,3,1]nonane dihydrochloride]
Findings in hematology, clinical chemistry, urinalysis and vital signs (0.4 mg/kg iv two step infusion): No clinically relevant findings
Safety and tolerability (two step infusion of 0.4 mg tedisamil dihydrochloride per kg (0.32 mg/kg base), dihydrochloride): well tolerated
